Measurements reported in patent publication US10208089B2, “Modulation of complement activity” (priority 2014, dated 2019).
pIC50: −log10 of the molar value. Starred links: 1 amine or outer side, 2 acyl side, 3 side chain; linkers in the order of their positions; H or OH if unused. Positions of bridges follow the written chain, without caps; N, C: chain ends. Non-standard residues stand in square brackets, D forms with d. Residues, ends and D or L forms follow the SMILES beside them. Trp(7-aza) = N[C@@H](Cc1c[nH]c2ncccc12)C(=O)O; NMePhe(4-F) = CN[C@@H](Cc1ccc(F)cc1)C(=O)O; mXylylene = c1cc(C[*:1])cc(C[*:2])c1; oXylylene = c1ccc(C[*:2])c(C[*:1])c1; pXylylene = c1cc(C[*:2])ccc1C[*:1]; Chg = N[C@H](C(=O)O)C1CCCCC1; Phg = N[C@H](C(=O)O)c1ccccc1; Tle = CC(C)(C)[C@H](N)C(=O)O; NMeS = CN[C@@H](CO)C(=O)O; NMeA = CN[C@@H](C)C(=O)O; Nva = CCC[C@H](N)C(=O)O; Sar = CNCC(=O)O

Target: C5 (Homo sapiens, UniProt P01031)
Assay: Human hemolysis assay (RBC lysis assay using complete human sera)
Assay type: cell-based
Parameters: with complete human sera (Complement Technology, Tyler Tex.) and polypeptides; tissue Complement Technology, Tyler Tex; host or cells: complete human serum
[1] = inhibition of lysis of antibody-sensitized sheep erythrocytes, complete human sera
[2] = C-terminally truncated polypeptide variants of R3021, inhibition of red blood cell lysis

Sequence of C5 (P01031 19-1676): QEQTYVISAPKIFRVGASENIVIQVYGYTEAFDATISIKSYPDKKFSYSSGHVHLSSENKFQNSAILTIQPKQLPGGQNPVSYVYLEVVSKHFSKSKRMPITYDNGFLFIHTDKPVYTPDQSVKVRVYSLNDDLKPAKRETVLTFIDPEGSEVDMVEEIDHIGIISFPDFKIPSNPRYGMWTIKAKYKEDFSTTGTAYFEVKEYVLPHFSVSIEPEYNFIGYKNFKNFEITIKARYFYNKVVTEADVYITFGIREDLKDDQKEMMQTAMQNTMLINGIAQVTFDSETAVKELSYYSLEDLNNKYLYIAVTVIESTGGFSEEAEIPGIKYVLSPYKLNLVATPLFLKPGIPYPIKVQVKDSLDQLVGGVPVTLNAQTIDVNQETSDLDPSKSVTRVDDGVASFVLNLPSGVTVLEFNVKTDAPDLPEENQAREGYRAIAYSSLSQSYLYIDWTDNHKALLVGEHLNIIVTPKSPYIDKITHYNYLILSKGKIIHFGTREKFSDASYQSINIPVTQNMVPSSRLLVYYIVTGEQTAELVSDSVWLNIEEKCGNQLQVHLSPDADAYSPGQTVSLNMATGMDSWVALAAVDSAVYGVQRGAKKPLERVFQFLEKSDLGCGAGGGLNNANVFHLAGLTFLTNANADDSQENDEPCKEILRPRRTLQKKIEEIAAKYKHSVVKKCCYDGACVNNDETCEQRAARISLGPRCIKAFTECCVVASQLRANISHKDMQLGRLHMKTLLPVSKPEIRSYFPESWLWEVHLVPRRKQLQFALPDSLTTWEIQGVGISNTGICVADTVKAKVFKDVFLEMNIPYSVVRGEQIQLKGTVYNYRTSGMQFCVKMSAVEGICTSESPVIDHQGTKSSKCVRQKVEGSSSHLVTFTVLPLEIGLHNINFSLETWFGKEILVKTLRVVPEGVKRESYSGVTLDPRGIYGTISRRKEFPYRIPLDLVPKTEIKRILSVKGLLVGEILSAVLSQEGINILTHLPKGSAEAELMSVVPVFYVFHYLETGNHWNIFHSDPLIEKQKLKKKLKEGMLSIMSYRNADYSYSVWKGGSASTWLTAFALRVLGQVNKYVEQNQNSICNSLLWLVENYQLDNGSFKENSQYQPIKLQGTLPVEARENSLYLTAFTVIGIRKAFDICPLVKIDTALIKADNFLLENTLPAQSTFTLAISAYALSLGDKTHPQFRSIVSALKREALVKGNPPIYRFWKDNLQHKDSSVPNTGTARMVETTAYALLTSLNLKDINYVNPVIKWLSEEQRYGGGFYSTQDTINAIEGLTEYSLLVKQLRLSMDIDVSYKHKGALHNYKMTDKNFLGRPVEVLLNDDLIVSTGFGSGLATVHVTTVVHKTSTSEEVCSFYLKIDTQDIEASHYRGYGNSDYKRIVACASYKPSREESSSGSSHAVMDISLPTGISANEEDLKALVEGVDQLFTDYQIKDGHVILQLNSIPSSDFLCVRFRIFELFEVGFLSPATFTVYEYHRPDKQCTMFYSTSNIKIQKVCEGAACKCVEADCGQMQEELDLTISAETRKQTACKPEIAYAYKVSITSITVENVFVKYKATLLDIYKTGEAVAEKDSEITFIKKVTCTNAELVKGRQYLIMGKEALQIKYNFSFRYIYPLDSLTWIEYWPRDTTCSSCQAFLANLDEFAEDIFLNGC

| SMILES | pIC50 [1] | pIC50 [2] | ability to inhibit red blood cell lysis compared with the parent polypeptide (in words) (variants of R3021, R3002 or R3008) |
| --- | --- | --- | --- |
| CCC[C@H](NC(=O)[C@@H]1CSCc2cccc(c2)CSC[C@H](NC(=O)[C@H](CCC)NC(C)=O)C(=O)N[C@@H](c2ccccc2)C(=O)N[C@@H]([C@@H](C)O)C(=O)N[C@@H](Cc2c[nH]c3ncccc23)C(=O)N[C@@H](CCC(=O)O)C(=O)N[C@@H](C)C(=O)N(C)[C@@H](CO)C(=O)N[C@@H](Cc2c[nH]cn2)C(=O)N1)C(N)=O [Compound R3036, [mXylyl(2,10)]Ac-Nvl-C-Phg-T-azaTrp-E-A-(N-Me)S-H-C-Nvl-NH2] (Ac-[Nva]C[Phg]T[Trp(7-aza)]EA[NMeS]HC[Nva]-NH2; linker 2-10 via mXylylene) | < 4.30 | – | – |
| CCC[C@H](NC(=O)[C@@H]1CSCc2cccc(c2)CSC[C@H](NC(=O)[C@H](CCC)NC(C)=O)C(=O)N[C@@H](c2ccccc2)C(=O)N[C@@H]([C@@H](C)O)C(=O)N[C@@H](Cc2c[nH]c3ncccc23)C(=O)N[C@@H](CCC(=O)O)C(=O)N[C@@H](Cc2ccc(O)cc2)C(=O)N(C)[C@@H](C)C(=O)N[C@@H](Cc2c[nH]cn2)C(=O)N1)C(N)=O [Compound R3037, [mXylyl(2,10)]Ac-Nvl-C-Phg-T-azaTrp-E-Y-(N-Me)A-H-C-Nvl-NH2] (Ac-[Nva]C[Phg]T[Trp(7-aza)]EY[NMeA]HC[Nva]-NH2; linker 2-10 via mXylylene) | 6.56 | – | – |
| CCC[C@H](NC(=O)[C@@H]1CSCc2cccc(c2)CSC[C@H](NC(=O)[C@H](CCC)NC(C)=O)C(=O)N[C@@H](c2ccccc2)C(=O)N[C@@H]([C@@H](C)O)C(=O)N[C@@H](Cc2c[nH]c3ncccc23)C(=O)N[C@@H](CCC(=O)O)C(=O)N[C@@H](Cc2ccc(O)cc2)C(=O)N(C)[C@@H](CO)C(=O)N[C@@H](C)C(=O)N1)C(N)=O [Compound R3038, [mXylyl(2,10)]Ac-Nvl-C-Phg-T-azaTrp-E-Y-(N-Me)S-A-C-Nvl-NH2] (Ac-[Nva]C[Phg]T[Trp(7-aza)]EY[NMeS]AC[Nva]-NH2; linker 2-10 via mXylylene) | 6.85 | – | – |
| CCC[C@H](NC(C)=O)C(=O)N[C@H]1CSCc2cccc(c2)CSC[C@@H](C(=O)N[C@@H](C)C(N)=O)NC(=O)[C@H](Cc2c[nH]cn2)NC(=O)[C@H](CO)N(C)C(=O)[C@H](Cc2ccc(O)cc2)NC(=O)[C@H](CCC(=O)O)NC(=O)[C@H](Cc2c[nH]c3ncccc23)NC(=O)[C@H]([C@@H](C)O)NC(=O)[C@H](c2ccccc2)NC1=O [Compound R3039, [mXylyl(2,10)]Ac-Nvl-C-Phg-T-azaTrp-E-Y-(N-Me)S-H-C-A-NH2] (Ac-[Nva]C[Phg]T[Trp(7-aza)]EY[NMeS]HCA-NH2; linker 2-10 via mXylylene) | 6.62 | – | – |
| CCC[C@H](NC(=O)[C@@H](NC(=O)[C@@H]1CCCN1C(=O)[C@H](Cc1ccc(O)cc1)NC(=O)[C@H](CCC(=O)O)NC(=O)[C@H](Cc1c[nH]c2ccccc12)NC(=O)[C@H](Cc1ccc(O)cc1)NC(=O)[C@@H](NC(=O)[C@H](CC(N)=O)NC(=O)[C@H](CCC(=O)O)NC(=O)[C@H](Cc1ccc(O)cc1)NC(C)=O)C(C)(C)C)c1ccccc1)C(N)=O [Compound R3041, Ac-Y-E-N-Tbg-Y-W-E-Y-P-Phg-Nvl-NH2] | 7.15 | – | – |
| CCC[C@H](NC(=O)[C@@H]1CSSC[C@H](NC(=O)[C@H](CCC)NC(C)=O)C(=O)N[C@@H](c2ccccc2)C(=O)N[C@@H]([C@@H](C)O)C(=O)N[C@@H](Cc2c[nH]c3ncccc23)C(=O)N[C@@H](CCC(=O)O)C(=O)N[C@@H](Cc2ccc(O)cc2)C(=O)N(C)[C@@H](CO)C(=O)N[C@@H](Cc2c[nH]cn2)C(=O)N1)C(N)=O [Compound R3042, [cyclo(2,10)]Ac-Nvl-C-Phg-T-azaTrp-E-Y-(N-Me)S-H-C-Nvl-NH2] (Ac-[Nva]C[Phg]T[Trp(7-aza)]EY[NMeS]HC[Nva]-NH2; disulfide 2-10) | < 4.00 | – | – |
| CSCC[C@H](N)C(=O)N[C@H]1CSCc2cccc(c2)CSC[C@@H](C(=O)N[C@@H](CC(=O)O)C(=O)N[C@H](C(=O)N[C@@H](Cc2ccc(O)cc2)C(=O)N[C@@H](Cc2c[nH]c3ccccc23)C(N)=O)C(C)C)NC(=O)[C@H](Cc2ccccc2)NC(=O)[C@H](CCCNC(=N)N)NC(=O)[C@H](CCC(=O)O)NC(=O)[C@H](C(C)C)NC1=O [Compound R3044, [mXylyl(2,7)]M-C-V-E-R-F-C-D-V-Y-W-NH2] (H-MCVERFCDVYW-NH2; linker 2-7 via mXylylene) | < 4.30 | < 4.30 | – |
| CSCC[C@H](N)C(=O)N[C@H]1CSCc2cccc(c2)CSC[C@@H](C(=O)N[C@@H](CC(=O)O)C(=O)N[C@H](C(=O)N[C@@H](Cc2ccc(O)cc2)C(N)=O)C(C)C)NC(=O)[C@H](Cc2ccccc2)NC(=O)[C@H](CCCNC(=N)N)NC(=O)[C@H](CCC(=O)O)NC(=O)[C@H](C(C)C)NC1=O [Compound R3045, [mXylyl(2,7)]M-C-V-E-R-F-C-D-V-Y-NH2] (H-MCVERFCDVY-NH2; linker 2-7 via mXylylene) | < 4.00 | < 4.00 | – |
| CSCC[C@H](N)C(=O)N[C@H]1CSCc2cccc(c2)CSC[C@@H](C(=O)N[C@@H](CC(=O)O)C(=O)N[C@H](C(N)=O)C(C)C)NC(=O)[C@H](Cc2ccccc2)NC(=O)[C@H](CCCNC(=N)N)NC(=O)[C@H](CCC(=O)O)NC(=O)[C@H](C(C)C)NC1=O [Compound R3046, [mXylyl(2,7)]M-C-V-E-R-F-C-D-V-NH2] (H-MCVERFCDV-NH2; linker 2-7 via mXylylene) | < 4.00 | < 4.00 | – |
| CSCC[C@H](N)C(=O)N[C@H]1CSCc2cccc(c2)CSC[C@@H](C(N)=O)NC(=O)[C@H](Cc2ccccc2)NC(=O)[C@H](CCCNC(=N)N)NC(=O)[C@H](CCC(=O)O)NC(=O)[C@H](C(C)C)NC1=O [Compound R3047, [mXylyl(2,7)]M-C-V-E-R-F-C-NH2] (H-MCVERFC-NH2; linker 2-7 via mXylylene) | < 4.00 | < 4.00 | – |
| CC(=O)N[C@H]1CSCc2cccc(c2)CSC[C@@H](C(=O)N[C@@H](CC(=O)O)C(=O)N[C@H](C(=O)N[C@@H](Cc2ccc(O)cc2)C(=O)N[C@@H](Cc2c[nH]c3ccccc23)C(=O)N[C@@H](CCC(=O)O)C(=O)N[C@@H](Cc2ccccc2)C(N)=O)C(C)C)NC(=O)[C@H](Cc2ccccc2)NC(=O)[C@H](CCCNC(=N)N)NC(=O)[C@H](CCC(=O)O)NC(=O)[C@H](C(C)C)NC1=O [Compound R3048, [mXylyl(1,6)]Ac-C-V-E-R-F-C-D-V-Y-W-E-F-NH2] (Ac-CVERFCDVYWEF-NH2; linker 1-6 via mXylylene) | 7.71 | – | increased the ability |
| CCC[C@H](NC(=O)[C@@H]1CSCc2ccccc2CSC[C@H](NC(=O)[C@H](CCC)NC(C)=O)C(=O)N[C@@H](c2ccccc2)C(=O)N[C@@H]([C@@H](C)O)C(=O)N[C@@H](Cc2c[nH]c3ncccc23)C(=O)N[C@@H](CCC(=O)O)C(=O)N[C@@H](Cc2ccc(O)cc2)C(=O)N(C)[C@@H](CO)C(=O)N[C@@H](Cc2c[nH]cn2)C(=O)N1)C(N)=O [Compound R3049, [oXylyl(2,10)]Ac-Nvl-C-Phg-T-azaTrp-E-Y-(N-Me)S-H-C-Nvl-NE2] (Ac-[Nva]C[Phg]T[Trp(7-aza)]EY[NMeS]HC[Nva]-NH2; linker 2-10 via oXylylene) | < 5.51 | – | – |
| CCC[C@H](N)C(=O)N[C@H]1CSCc2cccc(c2)CSC[C@@H](C(N)=O)NC(=O)CN(C)C(=O)[C@H](Cc2ccc(F)cc2)N(C)C(=O)[C@H](Cc2c[nH]cn2)NC(=O)[C@H](CO)N(C)C(=O)[C@H](Cc2ccc(F)cc2)N(C)C(=O)[C@H](c2ccccc2)NC(=O)[C@H](CO)N(C)C(=O)[C@H](Cc2ccc(O)cc2)NC1=O [Compound R3051, [mXylyl(2,11)]Nvl-C-Y-(N-Me)S-Phg-(N-Me-4-F)Phe-(N-Me)S-H-(N-Me-4-F)-Phe-(N-Me)G-C-NH2] (H-[Nva]CY[NMeS][Phg][NMePhe(4-F)][NMeS]H[NMePhe(4-F)][Sar]C-NH2; linker 2-11 via mXylylene) | < 4.00 | – | – |
| CCC[C@H](N)C(=O)N[C@H]1CSCc2cccc(c2)CSC[C@@H](C(=O)N[C@H](C(=O)N(C)[C@@H](C)C(N)=O)c2ccccc2)NC(=O)[C@H](CC(C)C)NC(=O)CN(C)C(=O)[C@H](CC(N)=O)NC(=O)[C@H](c2ccccc2)NC(=O)[C@H](C(C)(C)C)NC(=O)[C@H](Cc2ccc(O)cc2)NC1=O [Compound R3052, [mXylyl(2,9)]Nvl-C-Y-Tbg-Phg-N-(N-Me)G-L-C-Phg-(N-Me)A-NH2] (H-[Nva]CY[Tle][Phg]N[Sar]LC[Phg][NMeA]-NH2; linker 2-9 via mXylylene) | < 4.00 | – | – |
| CCC[C@H](NC(=O)[C@@H](NC(=O)[C@@H]1CCCN1C(=O)[C@H](Cc1ccc(O)cc1)NC(=O)[C@H](CCC(=O)O)NC(=O)[C@H](Cc1c[nH]c2ncccc12)NC(=O)[C@H](Cc1ccc(O)cc1)NC(=O)[C@@H](NC(=O)[C@H](CC(=O)O)NC(=O)[C@@H]1CSCc2cccc(c2)CSC[C@H](NC(=O)[C@@H](N)CCSC)C(=O)N[C@@H](C(C)C)C(=O)N[C@@H](CCC(=O)O)C(=O)N[C@@H](CCCNC(=N)N)C(=O)N[C@@H](Cc2ccccc2)C(=O)N1)C(C)(C)C)c1ccccc1)C(N)=O [Compound R3057, [mXylyl(2,7)]M-C-V-E-R-F-C-D-Tbg-Y-azaTrp-E-Y-P-Phg-Nvl-NH2] (H-MCVERFCD[Tle]Y[Trp(7-aza)]EYP[Phg][Nva]-NH2; linker 2-7 via mXylylene) | 7.91 | – | – |
| CCC[C@H](NC(=O)[C@@H]1CSCc2ccc(cc2)CSC[C@H](NC(=O)[C@H](CCC)NC(C)=O)C(=O)N[C@@H](C2CCCCC2)C(=O)N[C@@H]([C@@H](C)O)C(=O)N[C@@H](Cc2c[nH]c3ncccc23)C(=O)N[C@@H](CCC(=O)O)C(=O)N[C@@H](Cc2ccc(O)cc2)C(=O)N(C)[C@@H](CO)C(=O)N[C@@H](Cc2c[nH]cn2)C(=O)N1)C(N)=O [Compound R3058, [pXylyl(2,10)]Ac-Nvl-C-Chg-T-azaTrp-E-Y-(N-Me)S-H-C-Nvl-NH2] (Ac-[Nva]C[Chg]T[Trp(7-aza)]EY[NMeS]HC[Nva]-NH2; linker 2-10 via pXylylene) | < 5.00 | – | – |
